Patent US20170226560A1, “GOLD NANOPARTICLE-BASED HOMOGENEOUS COLORIMETRIC DIAGNOSTIC ASSAY FOR THE DETECTION OF PROTEASES AND PROTEASE INHIBITORS” (IMRA America, Inc., priority 2014, published 2017)
Ends that are not written are not given here.

System: trypsin
Test: Colloidal gold nanoparticle-based colorimetric assay for trypsin (hydrolytic cleavage of peptide substrate)
Assay type: biochemical
Settings: 1000 nM peptide substrate, trypsin 200 pM, 20° C.
Description: Based on the design criteria for the peptide substrate mentioned above, a sequence of amino acids in the peptide substrate of SEQ ID NO: 1 Lys-Lys-Gly-Phe-Pro-Arg-Gly-Gly-Asp-Cys was used in an assay method patterned after FIG. 1a. Unless noted otherwise, all incubations and reactions reported in the present specification were conducted at 20° C. The final reaction volume in all experiments described in the present specification, unless noted otherwise, was 500 microliters and the gold nanoparticle concentration was 1 nM. […] Thus, in all of the described experiments the aggregation state of any gold nanoparticle solution could be measured after 30 minutes or less. […] All of these can be evaluated using the present inventive assay methods. […]
After confirming that the peptide substrate SEQ ID NO: 1 Lys-Lys-Gly-Phe-Pro-Arg-Gly-Gly-Asp-Cys did induce the aggregation of negative surface charged gold nanoparticles, we carried out another experiment of examining the ultraviolet-visible spectra of solutions of colloidal gold nanoparticles after they were added to solutions of peptide substrates that had been pre-exposed for different time periods of from 0 minutes (min) to 60 min to trypsin. […] The absorbance spectrum shifts back to a maximum at 520 nm±5 nm, non-aggregated nanoparticles, as the pre-exposure time increases. […]

Sequence: KKGFPRGGDC [SEQ ID NO: 1, peptide substrate cleaved by trypsin; intact peptide aggregates negatively charged gold nanoparticles]
- time for complete hydrolytic cleavage of the peptide substrate by trypsin: more than 60 min
